According to patent US7462600B2, “Macrolides” (Pfizer Inc, priority 2004, dated 2008):
≈ marks a conversion by molar mass, not a printed value. Where two headings read alike, the source gives them in different places.

How the values were obtained:
Format in all cases: cell-based
[1] = test system: Haemophilus influenzae 1218; experiment: MIC, microtiter broth dilution (NCCLS M100-S14), H. influenzae 1218 (susceptible)
Description: (§1) The assay described herein includes a panel of bacterial strains assembled to include a variety of target pathogenic species, including representatives of macrolide resistance mechanisms that have been characterized. In many cases, both the macrolide-susceptible parent strain and the macrolide-resistant strain derived from it are available to provide a more accurate assessment of the compound's ability to circumvent the resistance mechanism. The assay is performed in microtiter trays and interpreted according to Performance Standards for Antimicrobial Susceptibility Testing; 14th Informational Supplement (M100-S14), published by The National Committee for Clinical Laboratory Standards (NCCLS) guidelines; the MIC is used to compare strains. Compounds are initially dissolved in DMSO as 40 mg/ml stock solutions.

[2] = test system: Streptococcus pyogenes 1079; experiment: MIC, microtiter broth dilution (NCCLS M100-S14), S. pyogenes 1079 (ermB)
Description: as §1

[3] = test system: Streptococcus pneumoniae 1175; conditions: microtiter broth dilution
Description: as §1

[4] = test system: Streptococcus pneumoniae 1095; conditions: microtiter broth dilution
Description: as §1

[5] = test system: Streptococcus pneumoniae 1016; experiment: MIC, microtiter broth dilution (NCCLS M100-S14), S. pneumoniae 1016 (susceptible)
Description: as §1

[6] = H. influenzae 1218 (susceptible)
[7] = S. pneumoniae 1016 (susceptible)

SMILES	MIC H. influenzae 1218 [1, 6] [µg/mL]	MIC S. pyogenes 1079 ([2]; S. pyogenes 1079 (ermB)) [µg/mL]	MIC S. pneumo. 1175 ([3]; S. pneumoniae 1175 (mefA)) [µg/mL]	MIC S. pneumo. 1095 ([4]; S. pneumoniae 1095 (ermB)) [µg/mL]	MIC S. pneumo. 1016 [5, 7] [µg/mL]	MIC H. influenzae 1218 ([1]; Haemophilus influenzae 1218) [µg/mL]	MIC S. pyogenes 1079 ([2]; Streptococcus pyogenes 1079) [µg/mL]	MIC S. pneumo. 1175 ([3]; Streptococcus pneumoniae 1175) [µg/mL]	MIC S. pneumo. 1095 ([4]; Streptococcus pneumoniae 1095) [µg/mL]	MIC S. pneumo. 1016 ([5]; Streptococcus pneumoniae 1016) [µg/mL]
CCC1OC(=O)C(C)C(=O)C(C)C(OC2OC(C)CC(N(C)C)C2O)C(C)(OC)CC(C)C(=O)C(C)C2N(CC3CCN(C(=O)c4cccc5cccnc45)C3)C(=O)OC12C (stereo not drawn) [13.11]	4 (≈ 4.7 µM)	>64.00	4 (≈ 4.7 µM)	16 (≈ 18.8 µM)	<0.06	–	–	–	–	–
CCC1OC(=O)C(C)C(=O)C(C)C(OC2OC(C)CC(N(C)C)C2O)C(C)(OC)CC(C)C(=O)C(C)C2N(C3CN(S(=O)(=O)c4ccc5c(c4)N(C)S(=O)(=O)N5C)C3)C(=O)OC12C (stereo not drawn) [Example 3.116, 3-descladinosyl-11,12-dideoxy-6-O-methyl-3-oxo-12,11-(oxycarbonyl-(1-(1,3-dimethyl-2,1,3-benzothiadiazole-2,2-dioxide-0-5-sulfonyl)-azetidin-3-yl)-imino)-erythromycin A]	–	–	–	–	–	0.5 (≈ 0.539 µM)	0.5 (≈ 0.539 µM)	<0.063	<0.063	<0.063
CCC1OC(=O)C(C)C(=O)C(C)C(OC2OC(C)CC(N(C)C)C2O)C(C)(OC)CC(C)C(=O)C(C)C2N(CC3CCCN3C(=O)c3cc4ccccn4n3)C(=O)OC12C [Example 10.14, 3-descladinosyl-11,12-dideoxy-6-O-methyl-3-oxo-12,11-(oxycarbonyl-((1-(pyrazolo[1,5-a]pyridine-2-carbonyl)-(R)-pyrrolidin-2-yl)-methyl)-imino)-erythromycin A]	0.25 (≈ 0.298 µM)	32 (≈ 38.1 µM)	0.12 (≈ 0.143 µM)	<0.06	<0.06	–	–	–	–	–
CCC1OC(=O)C(C)C(=O)C(C)C(OC2OC(C)CC(N(C)C)C2O)C(C)(OC)CC(C)C(=O)C(C)C2N(C3CN(Cc4c(OC)cnc5ncccc45)C3)C(=O)OC12C (stereo not drawn) [Example 1.72, 3-descladinosyl-11,12-dideoxy-6-O-methyl-3-oxo-12,11-(oxycarbonyl-(1-(3-methoxy-1,8-naphthyridine-4-methyl)-azetidin-3-yl)-imino)-erythromycin A]	–	–	–	–	–	1 (≈ 1.19 µM)	<0.063	<0.063	<0.063	<0.063
CCC1OC(=O)C(C)C(=O)C(C)C(OC2OC(C)CC(N(C)C)C2O)C(C)(OC)CC(C)C(=O)C(C)C2N(C3CN(S(=O)(=O)c4ccc(-c5nc6ccc(C)cc6s5)cc4)C3)C(=O)OC12C (stereo not drawn) [Example 3.54, 3-descladinosyl-11,12-dideoxy-4-O-methyl-3-oxo-12,11-(oxycarbonyl-(1-(4-(6-methylbenzo[d]thiazol-2-yl)benzenesulfonyl)-azetidin-3-yl)imino)-erythromycin A]	–	–	–	–	–	>64.00	8 (≈ 8.38 µM)	4 (≈ 4.19 µM)	4 (≈ 4.19 µM)	<0.06
CCC1OC(=O)C(C)C(=O)C(C)C(OC2OC(C)CC(N(C)C)C2O)C(C)(OC)CC(C)C(=O)C(C)C2N(C3CN(Cc4ccc(-n5cccn5)nc4)C3)C(=O)OC12C (stereo not drawn) [Example 1.45]	–	–	–	–	–	4 (≈ 4.85 µM)	16 (≈ 19.4 µM)	0.5 (≈ 0.606 µM)	<0.06	<0.06
CCC1OC(=O)C(C)C(=O)C(C)C(OC2OC(C)CC(N(C)C)C2O)C(C)(OC)CC(C)C(=O)C(C)C2N(CC3CCCN3C(=O)c3cncc4ccccc34)C(=O)OC12C.O=CO (stereo not drawn) [10.20]	2	64	0.12	<0.06	<0.06	–	–	–	–	–
CCC1OC(=O)C(C)C(=O)C(C)C(OC2OC(C)CC(N(C)C)C2O)C(C)(OC)CC(C)C(=O)C(C)C2N(C3CN(Cc4ccccc4OC(F)(F)F)C3)C(=O)OC12C (stereo not drawn) [Example 1.88, 3-descladinosyl-11,12-dideoxy-6-O-methyl-3-oxo-12,11-(oxycarbonyl-(1-(2-(trifluoromethoxy)benzene-1-methyl)-azetidin-3-yl)-imino)-erythromycin A]	–	–	–	–	–	0.5 (≈ 0.594 µM)	8 (≈ 9.5 µM)	–	–	<0.063
CCC1OC(=O)C(C)C(=O)C(C)C(OC2OC(C)CC(N(C)C)C2O)C(C)(OC)CC(C)C(=O)C(C)C2N(C3CN(Cc4c(F)cccc4OC)C3)C(=O)OC12C (stereo not drawn) [Example 1.85, 3-descladinosyl-11,12-dideoxy-6-O-methyl-3-oxo-12,11-(oxycarbonyl-(1-(1-fluoro-3-methoxybenzene-2-methyl)-azetidin-3-yl)-imino)-erythromycin A]	–	–	–	–	–	2 (≈ 2.48 µM)	16 (≈ 19.9 µM)	–	–	<0.063
CCC1OC(=O)C(C)C(=O)C(C)C(OC2OC(C)CC(N(C)C)C2O)C(C)(OC)CC(C)C(=O)C(C)C2N(CC3CCN(Cc4cccc5cnccc45)C3)C(=O)OC12C (stereo not drawn) [11.13]	0.25 (≈ 0.299 µM)	–	<0.06	<0.06	<0.06	–	–	–	–	–
CCC1OC(=O)C(C)C(=O)C(C)C(OC2OC(C)CC(N(C)C)C2O)C(C)(OC)CC(C)C(=O)C(C)C2N(C3CN(S(=O)(=O)c4c(Cl)nc5sccn45)C3)C(=O)OC12C (stereo not drawn) [Example 3.97, 3-descladinosyl-11,12-dideoxy-6-O-methyl-3-oxo-12,11-(oxycarbonyl-(1-(6-chloroimidazo[2,1-b]thiazole-5-sulfonyl)-azetidin-3-yl)-imino)-erythromycin A]	–	–	–	–	–	0.125 (≈ 0.141 µM)	1 (≈ 1.13 µM)	<0.063	0.25 (≈ 0.281 µM)	–
CCC1OC(=O)C(C)C(=O)C(C)C(OC2OC(C)CC(N(C)C)C2O)C(C)(OC)CC(C)C(=O)C(C)C2N(CC3CN(C(=O)c4cccc5cccnc45)C3)C(=O)OC12C (stereo not drawn) [Example 4.34, 3-descladinosyl-11,12-dideoxy-6-O-methyl-3-oxo-12,11-(oxycarbonyl-((1-(quinoline-8-carbonyl)-azetidin-3-yl)-methyl)-imino)-erythromycin A]	–	–	–	–	–	0.25 (≈ 0.299 µM)	–	1 (≈ 1.19 µM)	1 (≈ 1.19 µM)	<0.06
CCC1OC(=O)C(C)C(=O)C(C)C(OC2OC(C)CC(N(C)C)C2O)C(C)(OC)CC(C)C(=O)C(C)C2N(C3CN(Cc4ccc(-n5ccnc5)cc4)C3)C(=O)OC12C (stereo not drawn) [Example 1.57, 4-(imidazol-1-yl)benzyl]	–	–	–	–	–	1 (≈ 1.21 µM)	64 (≈ 77.7 µM)	<0.06	<0.06	–
CCC1OC(=O)C(C)C(=O)C(C)C(OC2OC(C)CC(N(C)C)C2O)C(C)(OC)CC(C)C(=O)C(C)C2N(CC3CCN(Cc4cccc5cccnc45)C3)C(=O)OC12C (stereo not drawn) [11.12]	<0.06	–	<0.06	<0.06	<0.06	–	–	–	–	–
CCC1OC(=O)C(C)C(=O)C(C)C(OC2OC(C)CC(N(C)C)C2O)C(C)(OC)CC(C)C(=O)C(C)C2N(C3CN(Cc4c(F)cccc4F)C3)C(=O)OC12C (stereo not drawn) [Example 1.87, 3-descladinosyl-11,12-dideoxy-6-O-methyl-3-oxo-12,11-(oxycarbonyl-(1-(1,3-difluorobenzene-2-methyl)-azetidin-3-yl)-imino)erythromycin A]	–	–	–	–	–	0.5 (≈ 0.63 µM)	8 (≈ 10.1 µM)	–	–	<0.063
CCC1OC(=O)C(C)C(=O)C(C)C(OC2OC(C)CC(N(C)C)C2O)C(C)(OC)CC(C)C(=O)C(C)C2N(C3CN(Cc4cccc(-n5ccnn5)c4)C3)C(=O)OC12C (stereo not drawn) [Example 1.56, 3-([1,2,3]triazol-1-yl)benzyl]	–	–	–	–	–	1 (≈ 1.21 µM)	>64.00	<0.06	<0.06	–
CC[C@H]1OC(=O)[C@H](C)C(=O)[C@H](C)[C@@H](O[C@@H]2O[C@H](C)C[C@H](N(C)C)[C@H]2O)[C@](C)(OC)C[C@@H](C)C(=O)[C@H](C)[C@H]2N(CC3(C)CN(C(=O)c4cccc5ncccc45)C3)C(=O)O[C@]12C.O=CO [6.14]	–	>64.00	0.25	8	<0.06	–	–	–	–	–
